EP2216341A1, “Transferrin variants and conjugates” (Novozymes Biopharma UK Limited, priority 2009, dated 2010)

How the values were obtained:
[1] = test system: K562 erythroleukemic cells; test: 55Fe uptake from labeled diferric transferrin in erythroleukemic K562 cells; format: cell-based, human; conditions: 25 minutes at 37°C
Experimental: Human plasma-derived apo-transferrin (Calbiochem 616419, tissue culture grade, pyrogen-free) is supplied lyophilised from 10mM phosphate buffer, pH7.4. The transferrin mutein is expressed, purified and quantified as described above.
For iron-55 uptake from labeled diferric transferrin, K562 erythroleukemic cells, cultured in RPMI cell culture medium under standard conditions (bicarbonate-buffered, 5% (v/v) CO2, antibiotics, 10% (v/v) fetal calf serum) are washed with serum-free medium containing HEPES-buffer and 1 mg/ml of bovine serum albumin and used at a concentration of 10 million cells/ml in this medium. The samples tested are prepared as equimolar concentrations of apo-transferrin mutein. Apo-transferrin mutein is loaded with iron according to a standard procedure (Bates and Schlabach, J Biol Chem, 248, 3228-3232, 1973) using ferric nitrilotriacetate as iron source. Typically 50µl of 1 M NaClO4 is added to 450µl of the transferrin mutein stock-solution (pH is alkaline to neutral). The ^55Fe -NTA-loading-buffer is prepared by mixing 8.5µl 50mM NTA (pH 8.25), 18.9µl 0.1M Tris, 98.8µl Millipore-purified water and 7.5µl ^55FeCl3 in 0.5 N HCl (NEN products). 500µl of transferrin mutein is carefully mixed (dropwise) with the ^55Fe -NTA-loading-buffer and then 310µl of 5mM Hepes. NaOH/0.1M NaClO4 is added. The mixture is incubated at 4°C for 60 min following which it is deslated on a PD-10 column (containing Sephadex G-25) and dialysed. The PD-10 column is equilibrated with 5ml of equilibration buffer (5mM Hepes/NaOH, 0.1M NaClO4, 0.1 g BSA (Amresco)) then washed three times with 5ml of wash buffer (5mM Hepes/NaOH, 0.1M NaClO4). […]
Increasing concentrations of human plasma transferrin or the transferrin mutein sample (0, 25, 100, 200, 400, 800, 1600 nM), labeled with ^55Fe, are mixed with 25 µl of medium. […] The lysates are neutralized with 1 M HCl after overnight lysis, mixed with Readysolv Scintillation cocktail and counted in the Packard Liquid Scintillation Counter. […]

[2] = biological target: T1, transferrin receptor 1 (TfR1) (Homo sapiens, UniProt P02786); test: Transferrin receptor 1 binding by Surface Plasmon Resonance (SPR, Biacore); conditions: fluorescein conjugated sample
T1 construct: purchased AbD Serotec 9110-300
T1 sequence (P02786 whole entry): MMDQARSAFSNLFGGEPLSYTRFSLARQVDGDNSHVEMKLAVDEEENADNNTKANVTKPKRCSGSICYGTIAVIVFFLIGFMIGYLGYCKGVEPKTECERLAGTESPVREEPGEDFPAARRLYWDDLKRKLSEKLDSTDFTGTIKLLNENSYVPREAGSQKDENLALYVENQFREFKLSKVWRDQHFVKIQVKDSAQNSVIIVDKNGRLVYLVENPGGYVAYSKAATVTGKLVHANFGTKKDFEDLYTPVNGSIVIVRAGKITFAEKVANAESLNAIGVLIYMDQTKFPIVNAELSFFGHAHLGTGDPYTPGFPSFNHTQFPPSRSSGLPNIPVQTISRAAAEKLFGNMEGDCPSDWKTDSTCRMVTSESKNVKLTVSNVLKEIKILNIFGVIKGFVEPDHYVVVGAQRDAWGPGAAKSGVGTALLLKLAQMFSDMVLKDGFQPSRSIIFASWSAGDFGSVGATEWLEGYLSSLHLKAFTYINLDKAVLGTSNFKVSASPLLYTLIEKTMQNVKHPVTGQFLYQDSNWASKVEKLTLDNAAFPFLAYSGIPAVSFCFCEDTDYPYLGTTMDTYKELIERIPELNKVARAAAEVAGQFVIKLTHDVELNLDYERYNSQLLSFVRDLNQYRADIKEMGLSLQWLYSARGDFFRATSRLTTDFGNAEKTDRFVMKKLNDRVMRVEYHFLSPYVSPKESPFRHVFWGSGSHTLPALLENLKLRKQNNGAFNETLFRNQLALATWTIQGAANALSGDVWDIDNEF
Excerpt: The receptor binding capability of the recombinant transferrin variants can be determined by Surface Plasmon Resonance (SPR) analysis. The binding activity of a transferrin sample to a transferrin receptor can be measured using surface plasmon resonance (SPR) a non-invasive optical technique in which the SPR response is a measure of change in mass concentration at the detector surface as molecules bind or dissociate. A sample is sent onto the surface of the sensor chip via a micro flow system at a constant flow rate. In this analysis, if the transferrin sample is able to bind to the Transferrin Receptor the mass on the surface sensor chip is increased due to binding between Transferrin Receptor and Transferrin molecules creating a surface plasmon wave, and a shift of the SPR signal proportional to the binding quantity can be detected as a change in the resonance unit (RU). […]
The binding capacity of human serum transferrin to human trabnsferrin receptor 1 may be measured by SPR. […]
The receptor binding capability of the recombinant transferrin variants was assessed by Surface Plasmon Resonance (SPR) analysis. The binding activity of a transferrin sample to transferrin receptor can be measured using surface plasmon resonance (SPR) a non-invasive optical technique in which the SPR response is a measure of change in mass concentration at the detector surface as molecules bind or dissociate. […]

Fluorescein conjugated thio-transferrin (S415C, T613A): thiotransferrin (S415C, T613A) conjugated with fluorescein
Specific iron ptake Bmax ([1]; 55Fe-labeled sample 0-1600 nM, specific uptake (unspecific binding with hundredfold excess unlabeled diferric transferrin accounted for)): 3246±217 fmol^55Fe/10^6 cells 25min
Total Iron Uptake Bmax ([1]; 55Fe-labeled sample 0-1600 nM, total uptake): 4165±216 fmol^55Fe/10^6 cells x 25min
Kd ([1]; specific uptake, read-out: Specific iron ptake Kd x): 189 ± 47 nM
ability to bind to transferrin receptor 1 (measured by SPR) [2]: able to bind to transferrin receptor 1 by SPR analysis in a manner equivalent to the unconjugated sample
